1 molecule from patent US20210275545A1, “METHOD OF TREATING CANCER PREFERABLY CHARACTERIZED BY EXPRESSION OF A FUSION PROTEIN COMPRISING A MEMBER OF THE E-TWENTY-SIX FAMILY BY ADMINISTERING AN AGENT THAT INHIBITS THE SYNTHESIS AND/OR ACTIVITY OF CORTISOL” (Yeda Research and Development Co. Ltd., priority 2018, published 2021) can be followed below.

Assay [1] deals with T1, GR and EWS-FLI1 (Homo sapiens, UniProt P04150). To be noted: A673 cells. The protocol:
Images were processed using the Zeiss ZEN2011 software. […] Bars, 20 μm.
Proximity ligation assay (PLA), extraction of cells, co-immunoprecipitation and cell migration/invasion assays: These assays were performed exactly as recently reported.

The test system of another assay is CHLA9 and RD-ES cells. Nature of the assay: Matrigel invasion assay of ES cells. The assay is classed as cell-based. The following applies: DEX 1 μM, RU486 1 μM, D06 10 μM; 20 hours.
For assay [2], the system named is A673 cells. Nature of the assay: MTT cell viability assay, A673 cells. In kind it is cell-based. To be noted: FLI1 silenced A673 cells; RU486 10 μM, 48 hours. (In general: Tetrazolium assays rely on reduction of a dye to a coloured formazan, in cell work by metabolically active cells.)
In assay [3] the test system is A673 cells. The assay can be described thus: Apoptosis assay (annexinV/7-AAD). The assay is classed as cell-based. To be noted: RU486 10 or 20 μM, 48 hours. On the procedure: FIGS. 12A-F: Inhibition of GR activity decreases growth and survival of Ewing's sarcoma cells. […] (B) Increasing concentrations of […], a non-steroidal antagonist of GR [54], were incubated with A673 cells as in A and the MTT assay was performed in triplicates. *, p<0.05. […] Note that the abundance of the endogenous form of FLI1 is much weaker than that of EWS-FLI1. […] MTT assays were performed after 48 hours of treatment. The assay was repeated twice in quadruplets. **, p<0.01, ***, p<0.001. (E) A673 cells were seeded in 100-mm dishes. […] Shown are results of an apoptosis assay performed using an annexinV/7-AAD kit (BioLegend, Inc.). Quantification of the fractions of early and late apoptotic cells is shown in bar plots. The experiment was repeated twice. (F) The indicated ES cells were sparsely seeded in 6-well plates. […] Ten days later, cells were fixed and stained with crystal violet to visualize emerging colonies. Photos are shown along with bar plots showing the quantification of colonies in 5 non-overlapping microscope fields. The experiment was repeated twice. *, p≤0.05; **, p≤0.001. Apoptosis assays: Assays were performed using the FITC Annexin V Apoptosis Detection Kit with 7-AAD (from BioLegend) and analyzed using a BD FACSAria Fusion instrument controlled by BD FACS Diva software v8.0.1 (BD Biosciences).

The test system of the next assay is RD-ES xenograft. The assay can be described thus: RD-ES xenograft tumor growth and KI67 staining. The assay is classed as in vivo, SCID mice. To be noted: 1 mg/kg daily. An excerpt:
(§1) FIGS. 6A-E. A GR antagonist and a cortisol-lowering drug impede growth of human xenograft models of Ewing's sarcoma. (A) RD-ES cells (2×10^6) were implanted subcutaneously in the right flank of SCID mice. Once tumors reached an approximate size of 150 mm^3, animals were randomized into three groups (n=10). […] The means of tumor volumes (+SEM) are shown. […] (B) Shown are representative images of immunofluorescent staining for KI67 in paraffin-embedded sections of tumors from A, using an antibody against KI67. Scale bars, 100 μm. Also shown is the scatter plot depicting quantification of KI67 staining in randomly selected 4 fields of a representative tumor from each group. […] (C and D) A673 cells (2×10^6) were implanted in female SCID mice. Once tumors reached the size of 150 mm^3, animals were randomized into two groups (n=9). Each group was daily treated with either vehicle, or Metyrapone (25 mg/kg) and tumorigenic growth was monitored. Actual tumor volumes (±SEM) are presented. Also shown are tumors harvested from each group of animals; **p<0.001. […] Luminescence was quantified and presented in a bar graph.
ES animal model studies: All animal experiments were approved by the Weizmann Institute's Animal Care and Use Committee. […] Tumor growth was monitored once every 3 days using a caliper. […]

In another assay the test system is TC-71 cells. The assay can be described thus: Bone-to-lung metastasis of luciferase-labeled TC-71 cells injected into the tibia. In kind it is in vivo, SCID mice. To be noted: TC-71 in tibia; 1 mg/kg intraperitoneally.
Text: as §1, with “mice.” for “mice. Once tumors reached an approximate size of 150 mm^3, animals were randomized into three groups (n=10).”, “Once tumors reached the size of 150 mm^3, animals were randomized into two groups (n=9).” left out, “**p<0.001. (E) TC-71 cells (10^6) engineered to stably express luciferase were injected into the tibia of female SCID mice (5 weeks old; 7 mice per group). […] The control group was similarly treated with the solvent (0.1% tween 80). When the primary tumor reached 10% of body weight, the lungs were excised and examined for metastasis using luciferase bioluminescence imaging.” for “**p<0.001.”, “graph. […] Tumor growth was monitored once every 3 days using a caliper. […]” for “graph.”

The target in assay [4] is T1, GR and EWS-FLI1. The following applies: DEX 1 μM, RU486 1 μM, 60 minutes.
Experimental: (§2) (A) CHLA9 cells were seeded in 100-mm dishes. Once they reached sub-maximal density, cells were starved overnight for serum factors. […] Cells were then extracted and the lysates were processed for co-immunoprecipitation assays using an antibody against GR followed by immunobloting that used an antibody against EWS. The image shown is representative of 3 biological replicates. Signals were quantified and normalized (see numbers below each lane). EB, empty beads. […] (C-D) CHLA9 cells were seeded on the upper faces of either Transwell migration chambers or Matrigel-coated invasion chambers, and further incubated for 20 hours in full medium. Control siRNAs or siRNAs specific to either GR or EWS-FLI1 were added to cells 24 hours prior to seeding, and both cell migration and invasion were measured 20 hours later. […] Cells that reached the lower faces of the chambers were fixed and stained. Shown are representative images of stained cells. The bar plots show quantification, using ImageJ, of the area covered by cells. *, p≤0.05, **, p≤0.005. Bars, 500 μm. […] The bar plots show quantification, using ImageJ, of the area covered by cells. *, p≤0.05, **, p≤0.005. […]
(§3) (A) RD-ES cells were seeded in 100-mm dishes. […] Cell migration/invasion was determined 20 hours later.

T1 sequence (P04150 whole entry): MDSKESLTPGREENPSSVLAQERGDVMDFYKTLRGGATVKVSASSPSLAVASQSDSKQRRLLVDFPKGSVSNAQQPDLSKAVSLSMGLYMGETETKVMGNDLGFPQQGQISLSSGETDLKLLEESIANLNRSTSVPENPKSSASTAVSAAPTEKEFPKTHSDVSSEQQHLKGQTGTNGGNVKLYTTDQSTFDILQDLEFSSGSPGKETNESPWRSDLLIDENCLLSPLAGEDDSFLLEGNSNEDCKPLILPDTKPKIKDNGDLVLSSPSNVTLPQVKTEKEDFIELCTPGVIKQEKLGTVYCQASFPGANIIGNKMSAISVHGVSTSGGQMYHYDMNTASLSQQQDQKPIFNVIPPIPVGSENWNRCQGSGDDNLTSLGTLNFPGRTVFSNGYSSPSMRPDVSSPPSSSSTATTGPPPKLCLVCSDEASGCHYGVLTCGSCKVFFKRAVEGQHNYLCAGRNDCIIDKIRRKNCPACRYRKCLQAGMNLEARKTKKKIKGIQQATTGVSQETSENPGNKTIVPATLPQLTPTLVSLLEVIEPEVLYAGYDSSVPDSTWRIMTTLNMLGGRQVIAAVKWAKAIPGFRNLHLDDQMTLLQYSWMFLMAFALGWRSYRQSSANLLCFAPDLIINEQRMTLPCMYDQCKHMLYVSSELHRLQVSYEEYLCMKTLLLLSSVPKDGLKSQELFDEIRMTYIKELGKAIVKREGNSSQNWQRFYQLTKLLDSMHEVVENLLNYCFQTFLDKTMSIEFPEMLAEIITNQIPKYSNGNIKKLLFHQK
Experimental for CHLA9 and RD-ES cells: as §2, §3

Regarding `CC#C[C@]1(O)CC[C@H]2[C@@H]3CCC4=CC(=O)CCC4=C3[C@@H](c3ccc(N(C)C)cc3)C[C@@]21C` [RU486, Mifepristone], the “GR/EWS-FLI1 protein-protein interactions (PLA)” value on GR and EWS-FLI1 [1] is listed as “blocked”. Besides, the matrix invasion result with CHLA9 and RD-ES cells is on record as “inhibited”. Further, the “fraction of metabolically active cells (MTT) after EWS-FLI1 knockdown” value in the assay with A673 cells [2] is “further reduced”. The “early apoptosis (fraction of cells)” value with A673 cells [3] (DEX 1 μM) is listed as “increased”. The “late apoptosis (fraction of cells)” value with A673 cells [3] is listed as “increased”. Further, the tumor growth entry in the assay on RD-ES xenograft is “significantly slower tumor growth”. In the assay with RD-ES xenograft (relative to control group), the “KI67 staining of tumor sections (proliferation)” value was “slower proliferation rates”. In the assay on TC-71 cells, the “bone-to-lung metastasis (lung luminescence)” value is on record as “lessened lung nodules”. For the same molecule, the “GR/EWS-FLI1 co-immunoprecipitation, CHLA9 cells” value on GR and EWS-FLI1 [4] (CHLA9 cells) is listed as “completely”. For the same molecule, the “GR/EWS-FLI1 co-immunoprecipitation, RD-ES cells” value at GR and EWS-FLI1 [4] (RD-ES cells) was “partially”.
